For 1 compound, IC50 results are on record in paper PMC5935545 (Molecular cell, 2018).

One experiment concerns the target EZH2 (PRC2) (Homo sapiens, UniProt Q15910). It is filed as biochemical.
The target in experiment [1] is EZH2 Y646N (PRC2/EZH2^Y646N) (Homo sapiens, UniProt Q15910, Y641N). It is filed as biochemical.
EZH2 Y646N (PRC2/EZH2^Y646N), sequence (Q15910 whole entry Y641N): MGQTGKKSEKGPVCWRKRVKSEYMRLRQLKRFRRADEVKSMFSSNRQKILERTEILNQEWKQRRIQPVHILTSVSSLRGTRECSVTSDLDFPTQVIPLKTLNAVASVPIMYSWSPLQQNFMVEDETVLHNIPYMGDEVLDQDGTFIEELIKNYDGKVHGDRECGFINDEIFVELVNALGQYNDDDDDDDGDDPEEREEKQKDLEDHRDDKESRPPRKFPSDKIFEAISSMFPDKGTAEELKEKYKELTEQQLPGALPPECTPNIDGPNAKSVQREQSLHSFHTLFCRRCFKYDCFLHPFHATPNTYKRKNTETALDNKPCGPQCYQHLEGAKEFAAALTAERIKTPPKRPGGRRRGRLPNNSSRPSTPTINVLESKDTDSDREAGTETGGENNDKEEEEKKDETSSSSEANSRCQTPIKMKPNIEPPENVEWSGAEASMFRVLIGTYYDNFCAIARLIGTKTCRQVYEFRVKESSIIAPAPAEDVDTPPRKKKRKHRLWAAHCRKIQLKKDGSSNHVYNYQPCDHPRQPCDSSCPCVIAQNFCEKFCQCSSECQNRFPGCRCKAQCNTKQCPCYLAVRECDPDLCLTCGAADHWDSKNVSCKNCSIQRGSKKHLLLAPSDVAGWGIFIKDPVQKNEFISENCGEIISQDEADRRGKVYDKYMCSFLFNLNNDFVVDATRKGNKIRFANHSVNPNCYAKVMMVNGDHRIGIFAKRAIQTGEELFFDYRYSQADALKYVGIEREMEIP
EZH2 Y646N (PRC2/EZH2^Y646N), sequence (O75530 2-441 partner): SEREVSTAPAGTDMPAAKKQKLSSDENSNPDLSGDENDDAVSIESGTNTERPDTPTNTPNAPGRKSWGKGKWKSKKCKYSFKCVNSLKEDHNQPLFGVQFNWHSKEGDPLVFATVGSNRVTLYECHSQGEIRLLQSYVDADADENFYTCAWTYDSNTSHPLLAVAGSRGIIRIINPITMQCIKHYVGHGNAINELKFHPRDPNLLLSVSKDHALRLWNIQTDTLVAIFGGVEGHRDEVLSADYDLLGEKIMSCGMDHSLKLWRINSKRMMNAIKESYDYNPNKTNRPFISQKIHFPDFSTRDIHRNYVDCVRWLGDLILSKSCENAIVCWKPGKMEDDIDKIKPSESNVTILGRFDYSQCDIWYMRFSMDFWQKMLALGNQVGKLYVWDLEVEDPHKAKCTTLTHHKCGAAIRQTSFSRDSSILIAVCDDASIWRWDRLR
EZH2 Y646N (PRC2/EZH2^Y646N), sequence (Q15022 whole entry partner): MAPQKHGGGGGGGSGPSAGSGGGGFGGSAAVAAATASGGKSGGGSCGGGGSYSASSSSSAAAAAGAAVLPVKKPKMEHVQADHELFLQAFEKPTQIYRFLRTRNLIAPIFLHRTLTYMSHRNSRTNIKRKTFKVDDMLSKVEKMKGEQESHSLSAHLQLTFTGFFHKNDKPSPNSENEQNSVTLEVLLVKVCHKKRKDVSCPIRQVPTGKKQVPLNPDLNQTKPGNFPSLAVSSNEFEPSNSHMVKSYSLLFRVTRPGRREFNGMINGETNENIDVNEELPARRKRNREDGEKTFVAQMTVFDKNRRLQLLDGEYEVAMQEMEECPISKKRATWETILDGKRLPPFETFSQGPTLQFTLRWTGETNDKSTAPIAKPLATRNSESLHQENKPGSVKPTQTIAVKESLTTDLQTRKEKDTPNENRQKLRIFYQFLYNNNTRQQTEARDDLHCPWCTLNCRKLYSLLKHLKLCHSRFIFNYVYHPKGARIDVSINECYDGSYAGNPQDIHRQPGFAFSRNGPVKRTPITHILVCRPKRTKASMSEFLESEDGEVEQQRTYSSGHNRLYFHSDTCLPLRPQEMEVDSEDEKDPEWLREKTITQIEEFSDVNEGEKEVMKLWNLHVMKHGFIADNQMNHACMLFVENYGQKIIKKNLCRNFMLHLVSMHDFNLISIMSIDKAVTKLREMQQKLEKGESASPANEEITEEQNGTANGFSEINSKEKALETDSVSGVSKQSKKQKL
EZH2 Y646N (PRC2/EZH2^Y646N), sequence (Q09028 2-425 partner): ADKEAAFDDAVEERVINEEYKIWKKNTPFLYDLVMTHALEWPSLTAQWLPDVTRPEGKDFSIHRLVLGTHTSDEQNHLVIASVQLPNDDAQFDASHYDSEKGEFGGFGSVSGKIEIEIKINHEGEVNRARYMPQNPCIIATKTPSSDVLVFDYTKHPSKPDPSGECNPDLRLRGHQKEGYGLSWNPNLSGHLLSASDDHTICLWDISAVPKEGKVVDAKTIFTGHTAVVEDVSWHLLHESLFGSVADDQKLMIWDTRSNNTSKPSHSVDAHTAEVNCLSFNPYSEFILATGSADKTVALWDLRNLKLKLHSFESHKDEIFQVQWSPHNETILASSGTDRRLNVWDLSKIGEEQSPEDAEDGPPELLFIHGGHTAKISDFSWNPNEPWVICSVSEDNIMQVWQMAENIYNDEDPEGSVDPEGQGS

EZH2 (PRC2), sequence (Q15910 whole entry): as the sequence (Q15910 whole entry Y641N) above, with N641Y counted along it
EZH2 (PRC2), sequence (O75530 2-441 partner): as the sequence (O75530 2-441 partner) above
EZH2 (PRC2), sequence (Q15022 whole entry partner): as the sequence (Q15022 whole entry partner) above
EZH2 (PRC2), sequence (Q09028 2-425 partner): as the sequence (Q09028 2-425 partner) above

The term IC50 denotes the midpoint of a concentration-inhibition curve. As to `COC(=O)c1ccc(NC(=O)c2ccc(NC(=O)c3ccc([N+](=O)[O-])c(OCc4ccccc4)n3)c(OCc3ccccc3)n2)c(OCCCN)n1` [ADH-61], the IC50 against EZH2 (PRC2) amounted to 766 ± 710 nM; in experiment [1], 891 ± 96 nM.
